Test results taken from ChEMBL document CHEMBL2440076, “New triarylpyrazoles as broad-spectrum anticancer agents: design, synthesis, and biological evaluation” (Eur J Med Chem, 2013).

Assays:
[1] = test system: HCT-15; experiment: Growth inhibition of human HCT15 cells after 48 hrs by sulforhodamine B assay; assay type: functional; conditions: HCT-15, 48 h
[2] = test system: 786-0; experiment: Growth inhibition of human 786-0 cells after 48 hrs by sulforhodamine B assay; assay type: functional; conditions: 786-0, 48 h
[3] = Growth inhibition of human NCI-ADR-RES cells assessed as cell growth at 10 uM after 48 hrs by sulforhodamine B assay; assay type: functional; conditions: read-out: Activity
[4] = test system: M14; experiment: Growth inhibition of human M14 cells assessed as cell growth at 10 uM after 48 hrs by sulforhodamine B assay; assay type: functional; conditions: M14, 48 h, read-out: Activity
[5] = test system: OVCAR-5; experiment: Growth inhibition of human OVCAR5 cells assessed as cell growth at 10 uM after 48 hrs by sulforhodamine B assay; assay type: functional; conditions: OVCAR-5, 48 h, read-out: Activity
[6] = test system: A549; experiment: Growth inhibition of human A549/ATCC cells after 48 hrs by sulforhodamine B assay; assay type: functional; conditions: A549, 48 h
[7] = test system: SF-539; experiment: Growth inhibition of human SF539 cells after 48 hrs by sulforhodamine B assay; assay type: functional; conditions: SF-539, 48 h
[8] = test system: MDA-MB-468; experiment: Growth inhibition of human MDA-MB-468 cells after 48 hrs by sulforhodamine B assay; assay type: functional, cell-based; conditions: MDA-MB-468, 48 h
[9] = test system: U-251; experiment: Growth inhibition of human U251 cells after 48 hrs by sulforhodamine B assay; assay type: functional; conditions: U-251, 48 h
[10] = test system: UACC-62; experiment: Growth inhibition of human UACC62 cells after 48 hrs by sulforhodamine B assay; assay type: functional; conditions: UACC-62, 48 h
[11] = test system: DU-145; experiment: Growth inhibition of human DU145 cells after 48 hrs by sulforhodamine B assay; assay type: functional; conditions: DU-145, 48 h
[12] = test system: HT-29; experiment: Growth inhibition of human HT-29 cells assessed as cell growth at 10 uM after 48 hrs by sulforhodamine B assay; assay type: functional; conditions: HT-29, 48 h, read-out: Activity
[13] = test system: DU-145; experiment: Growth inhibition of human DU145 cells assessed as cell growth at 10 uM after 48 hrs by sulforhodamine B assay; assay type: functional; conditions: DU-145, 48 h, read-out: Activity
[14] = test system: UO-31; experiment: Growth inhibition of human UO31 cells after 48 hrs by sulforhodamine B assay; assay type: functional; conditions: UO-31, 48 h
[15] = test system: SNB-19; experiment: Growth inhibition of human SNB19 cells assessed as cell growth at 10 uM after 48 hrs by sulforhodamine B assay; assay type: functional; conditions: SNB-19, 48 h, read-out: Activity
[16] = test system: ACHN; experiment: Growth inhibition of human ACHN cells after 48 hrs by sulforhodamine B assay; assay type: functional
[17] = test system: OVCAR-3; experiment: Growth inhibition of human OVCAR3 cells assessed as cell growth at 10 uM after 48 hrs by sulforhodamine B assay; assay type: functional; conditions: OVCAR-3, 48 h, read-out: Activity
[18] = test system: NCI-H322M; experiment: Growth inhibition of human NCI-H322M cells assessed as cell growth at 10 uM after 48 hrs by sulforhodamine B assay; assay type: functional; conditions: read-out: Activity
[19] = test system: SR; experiment: Growth inhibition of human SR cells after 48 hrs by sulforhodamine B assay; assay type: functional
[20] = test system: OVCAR-8; experiment: Growth inhibition of human OVCAR8 cells after 48 hrs by sulforhodamine B assay; assay type: functional; conditions: OVCAR-8, 48 h
[21] = test system: SF-539; experiment: Growth inhibition of human SF539 cells assessed as cell growth at 10 uM after 48 hrs by sulforhodamine B assay; assay type: functional; conditions: SF-539, 48 h, read-out: Activity
[22] = test system: KM12; experiment: Growth inhibition of human KM12 cells after 48 hrs by sulforhodamine B assay; assay type: functional, cell-based; conditions: KM12, 48 h
[23] = test system: COLO 205; experiment: Growth inhibition of human COLO205 cells assessed as cell growth at 10 uM after 48 hrs by sulforhodamine B assay; assay type: functional; conditions: COLO 205, 48 h, read-out: Activity
[24] = test system: MDA-MB-231; experiment: Growth inhibition of human MDA-MB-231 cells assessed as cell growth at 10 uM after 48 hrs by sulforhodamine B assay; assay type: functional; conditions: MDA-MB-231, 48 h, read-out: Activity
[25] = test system: OVCAR-8; experiment: Growth inhibition of human OVCAR8 cells assessed as cell growth at 10 uM after 48 hrs by sulforhodamine B assay; assay type: functional; conditions: OVCAR-8, 48 h, read-out: Activity
[26] = test system: UACC-257; experiment: Growth inhibition of human UACC257 cells after 48 hrs by sulforhodamine B assay; assay type: functional; conditions: UACC-257, 48 h
[27] = test system: SK-MEL-28; experiment: Growth inhibition of human SK-MEL-28 cells assessed as cell growth at 10 uM after 48 hrs by sulforhodamine B assay; assay type: functional; conditions: SK-MEL-28, 48 h, read-out: Activity
[28] = test system: HCT-116; experiment: Growth inhibition of human HCT116 cells after 48 hrs by sulforhodamine B assay; assay type: functional; conditions: HCT-116, 48 h
[29] = test system: NCI-H322M; experiment: Growth inhibition of human NCI-H322M cells after 48 hrs by sulforhodamine B assay; assay type: functional
[30] = test system: MCF7; experiment: Growth inhibition of human MCF7 cells assessed as cell growth at 10 uM after 48 hrs by sulforhodamine B assay; assay type: functional; conditions: MCF7, 48 h, read-out: Activity
[31] = test system: K562; experiment: Growth inhibition of human K562 cells assessed as cell growth at 10 uM after 48 hrs by sulforhodamine B assay; assay type: functional; conditions: K562, 48 h, read-out: Activity
[32] = Growth inhibition of human HCC2998 cells after 48 hrs by sulforhodamine B assay; assay type: functional; conditions: HCC 2998, 48 h
[33] = test system: SW-620; experiment: Growth inhibition of human SW620 cells after 48 hrs by sulforhodamine B assay; assay type: functional; conditions: SW-620, 48 h
[34] = test system: HOP-92; experiment: Growth inhibition of human HOP92 cells assessed as cell growth at 10 uM after 48 hrs by sulforhodamine B assay; assay type: functional; conditions: HOP-92, 48 h, read-out: Activity
[35] = read-out: LC50 (the source's name)

O=C(Nc1cccc(-n2cc(-c3ccncc3)c(-c3ccc(Cl)c(O)c3)n2)c1)Nc1cc(C(F)(F)F)cc(C(F)(F)F)c1
GI50 [1]: 0.474 µM
LC50 [1]: 21.2 µM
TGI [1]: 3.52 µM
GI50 [2]: 1.17 µM
TGI [2]: 3.16 µM
CC50 [2, 35]: 18 µM
growth at 10 µM [3]: 4.72%
growth at 10 µM [4]: -37.2%
growth at 10 µM [5]: -32.9%
GI50 [6]: 0.298 µM
LC50 (concentration killing 50% of starting cells) [6]: 11.4 µM
TGI [6]: 1.69 µM
GI50 [7]: 0.765 µM
LC50 (concentration killing 50% of cells) [7]: 2.89 µM
TGI [7]: 1.49 µM
GI50 [8]: 0.265 µM
IC50 [8]: 0.27 µM
TGI [8]: 2.66 µM
CC50 [8, 35]: 37.1 µM
GI50 [9]: 0.463 µM
LC50 (concentration killing 50% of cells) [9]: 2.8 µM
TGI [9]: 1.17 µM
GI50 [10]: 0.749 µM
LC50 (50% lethal concentration) [10]: 8.46 µM
TGI [10]: 2.19 µM
GI50 [11]: 1.25 µM
LC50 [11]: 17.4 µM
TGI [11]: 5.62 µM
growth at 10 µM [12]: -56%
growth at 10 µM [13]: -28.2%
GI50 [14]: 0.647 µM
TGI [14]: 1.9 µM
CC50 [14, 35]: 6.6 µM
growth at 10 µM [15]: 11.3%
GI50 [16]: 0.624 µM
TGI [16]: 5.27 µM
CC50 [16, 35]: 17.3 µM
growth at 10 µM [17]: -67.5%
growth at 10 µM [18]: 5.11%
GI50 [19]: 0.922 µM
TGI [19]: 3.66 µM
CC50 [19, 35]: > 50 µM
GI50 [20]: 0.563 µM
TGI [20]: 5.92 µM
CC50 [20, 35]: 43.7 µM
growth at 10 µM [21]: -63%
GI50 [22]: 0.506 µM
IC50 [22]: 0.51 µM
TGI [22]: 1.43 µM
CC50 [22, 35]: 4.06 µM
growth at 10 µM [23]: -97.3%
growth at 10 µM [24]: -88.9%
growth at 10 µM [25]: -12.2%
GI50 [26]: 0.965 µM
TGI [26]: 2.55 µM
CC50 [26, 35]: 10.6 µM
growth at 10 µM [27]: -62.4%
GI50 [28]: 0.428 µM
TGI [28]: 1.11 µM
CC50 [28, 35]: 2.65 µM
GI50 [29]: 1.31 µM
TGI [29]: 5.39 µM
CC50 [29, 35]: 23.6 µM
growth at 10 µM [30]: 2.71%
growth at 10 µM [31]: -19.6%
GI50 [32]: 1.03 µM
TGI [32]: 2.41 µM
CC50 [32, 35]: 7.16 µM
GI50 [33]: 1.3 µM
TGI [33]: 5.11 µM
CC50 [33, 35]: 23.4 µM
growth at 10 µM [34]: -45.8%
